This is an account of results in ChEMBL document CHEMBL5252653, “Design, Synthesis, and Bioevaluation of Dexmedetomidine Prodrug” (ACS Med Chem Lett, 2023).

The subject of data set [1] is Rattus norvegicus. Nature of the data set: Sedative activity in Sprague-Dawley rat at 10 to 110 microg/ml, iv administered as bolus dose by dixon analysis. It counts as functional.
The nature of data set [2]: Prodrug conversion in Sprague-Dawley rat plasma assessed as dexmedetomidine release measured at 1 hr by HPLC analysis. The format is ADME, cell-free.
Data set [3] can be described thus: Toxicity in Sprague-Dawley rat assessed as survival rate at 2 times of EC50. The following applies: in vivo, read-out: Activity.
The species named for data set [4] is Rattus norvegicus. As to the kind of experiment: Sedative activity in Sprague-Dawley rat assessed as onset time at 2 times of EC50. It counts as functional. To be noted: dose 10-110 µg/ml; route iv.
The subject of data set [5] is Rattus norvegicus. As to the kind of experiment: Sedative activity in Sprague-Dawley rat assessed as duration time at 2 times of EC50 administered as bolus dose. It counts as functional.
Data set [6] is described as follows: Prodrug conversion in Sprague-Dawley rat assessed as dexmedetomidine release at 2 times of ED50. The format is ADME. The following applies: in vivo.
The nature of data set [7]: Cardiotoxicity in Sprague-Dawley rat assessed as reduction in heart rate at 20 to 80 microg/ml, iv administered as bolus dose by ECG analysis. To be noted: in vivo, dose 20-80 µg/ml. The format is toxicity, organism-based.

As for `CCOC(=O)CCC(=O)OCn1cnc([C@@H](C)c2cccc(C)c2C)c1.Cl`, in the data set with Rattus norvegicus [1], the ED50 was found to be 0.0273 mg/kg. Also, the values for the Drug metabolism entry in data set [2] and in data set [6] were “Metabolite_Detected” and 27.67 µg/kg, respectively. The survival in data set [3] stood at 100%. The Time in the data set listed under Rattus norvegicus [4] was 116 s; with Rattus norvegicus [5] it was 2484.1 s. The Activity entry in data set [7] is on record as “Toxic”.

As for `COC(=O)CCC(=O)OCn1cnc([C@@H](C)c2cccc(C)c2C)c1.Cl`, the 50% effect level in the data set on Rattus norvegicus [1] (ED50) was put at a dose of 0.0301 mg/kg. For the same compound, the Drug metabolism entry is “Metabolite_Detected” in data set [2] and 31.71 µg/kg in data set [6]. Further, the survival in data set [3] came to 100%. For the same compound, the values for the Time in the data set listed under Rattus norvegicus [4] and in the data set with Rattus norvegicus [5] were 78.9 s and 2733.9 s, respectively. For the same compound, in data set [7], the Activity result was “Toxic”.
